Data on four compounds can be found in paper PMC11226541 (Cancer Medicine, 2024).

As usually defined, the Cmax is the peak of the concentration-time curve. For orientation: Tmax means the time from dosing to the highest level.

Each structure is given as a SMILES string. Like-named read-outs stand apart in the source and are kept apart here.

The subject of series [1] is patients with locally advanced and metastatic solid tumors. Put plainly: Dose-limiting toxicities, MTD and RP2D, dose-escalation stage (modified 3 + 3). The conditions noted are these: QD, with pamiparib 60 mg BID. It counts as in vivo, human. The source says: AEs were coded using MedDRA v25.0 or higher.
Series [2] can be described thus: Pharmacokinetics of TMZ in plasma (combination with pamiparib). It is filed as in vivo. The conditions noted are these: human, po, read-out: mean plasma concentration of TMZ 1 h after oral administration. The procedure: (§1) PK of pamiparib and TMZ were assessed in blood samples collected at various timepoints following administration (pamiparib: ≤30 min before dosing, 1 h ± 15 min, 2 h ± 30 min, and 4 h ± 30 min after pamiparib dose on cycle 1 Day 1 and cycle 1 Day 15; TMZ: on cycle 1 Day 1 and Day 7 at ≤30 min before dosing and 1 h ± 15 min after TMZ dose). Parameters for pamiparib included the maximum observed plasma concentration (Cmax), lowest concentration reached before the next administered dose (Ctrough), half‐life (T1/2), and time to reach peak plasma concentration (Tmax). Biomarkers were analyzed in blood samples, processed into serum, plasma, and cell fractions for the analysis of germline mutations and circulating markers. Available archival or fresh tumor tissue samples were analyzed at a central laboratory. Tumor tissue was sent either as a formalin‐fixed, paraffin‐embedded block with tumor tissue (preferred) or as approximately 10 unstained slides.

In a further series the test system is recurrent glioblastoma. Also noted: method as in PMID 32347934. To be noted: combination with TMZ; cited from earlier work.
The nature of series [3]: Pharmacokinetics of pamiparib in plasma (combination with TMZ). It counts as in vivo, human. To be noted: for concentration at 2 h: read-out: geometric mean pamiparib concentration at 2 h post dose. The procedure:
as §1

Series [4] deals with advanced or metastatic solid tumors. The conditions noted are these: cited from earlier work.
The test system of series [5] is BRCA1/2-mutated ovarian cancer. Also noted: method as in PMID 34844979. The conditions noted are these: monotherapy, cited from earlier work.
Series [6] has as its system triple-negative breast cancer with germline BRCA1/2 mutations. Also noted: method as in PMID 36459284. The conditions noted are these: monotherapy, TNBC patients with germline BRCA1/2 mutations; cited from earlier work.
Details of series [7]: method as in PMID 32652442. To be noted: cited from earlier work.
The subject of a further series is advanced malignancies. Also noted: method as in PMID 36136304. The conditions noted are these: combination with TMZ, related AEs; cited from earlier work.

For the compound `Cn1nnc2c(C(N)=O)ncn2c1=O` [TMZ, Temozolomide], the “RP2D of TMZ” value in [1] (7-day pulsed) worked out at 60 mg. In addition, the “maximum tolerated dose of TMZ” value stood at 60 mg in series [1] (7-day pulsed) and 20 mg in [1] (continuous). Besides, the concentration at 1 h was determined as 338 ng/mL in series [2] (cycle 1 Day 1, 20-mg dose) and 1510 ng/mL in series [2] (cycle 1 Day 1, 120-mg dose).
With `O=C(c1cc(Cc2n[nH]c(=O)c3ccccc23)ccc1F)N1CCN(C(=O)C2CC2)CC1` [olaparib], in the series with recurrent glioblastoma, the “Grade 3/4 neutropenia” value is recorded as 13% and the “Grade 3/4 thrombocytopenia” value was 25%.
`C[C@]12CCCN1CC1=NNC(=O)c3cc(F)cc4[nH]c2c1c34` [pamiparib, Pamiparib]: in [3] (combination with TMZ), the “geometric mean AUC0-4 at steady state relative to single-dose pamiparib administration” value is “approximately twice”. For the same compound, the concentration at 2 h in series [3] (human, plasma, oral, cycle 1 Day 1, combination with TMZ) is 1580 ng/mL; in series [3] (human, plasma, oral, cycle 1 Day 15, combination with TMZ) it was 3480 ng/mL. For the same compound, in series [3] (human, plasma, oral, steady state with combination TMZ therapy (cycle 1 Day 15), pamiparib 60 mg BID, read-out: pamiparib geometric mean AUC0-4), the AUC(0-t) was 11100 ng·h/mL. The Cmax in [3] (oral, pamiparib 60 mg BID with TMZ, human plasma, n/N 20/20, read-out: Cmax – mean (SD)) came to 2010 ng/mL. In [3] (oral, pamiparib 60 mg BID with TMZ, human plasma, n/N 20/20, read-out: Tmax – mean (SD)), the Tmax worked out at 4 h. Moreover, the “AUC0-4, SS – geometric mean” value in series [3] (pamiparib 60 mg BID with TMZ, steady state, cycle 1, day 15, human plasma, n/N 8/20) is on record as 11,119 h*ng/mL. Also, the “Ctrough, SS – mean (SD)” value in [3] (pamiparib 60 mg BID with TMZ, steady state, cycle 1, day 15, human plasma, n/N 14/20) was 2,934 (2346) ng/mL. In series [4] (administered orally, BID), the RP2D of pamiparib is 60 mg. The ORR in [4] (monotherapy, advanced or metastatic solid tumors) is 27.3%; in [5] (BRCA1/2-mutated platinum-resistant ovarian cancer), 31.6%; in [5] (BRCA1/2-mutated platinum-sensitive ovarian cancer), 64.6%; in series [6], 38.2%. Moreover, in series [7] (mice and rats), the brain penetration entry is given as “strong brain penetration”. The “drug exposure in the brain” value in series [7] (mice) is reported as “higher drug exposure in the brain compared with other PARP inhibitors”.
As for `Cn1ncnc1[C@H]1c2n[nH]c(=O)c3cc(F)cc(c23)N[C@@H]1c1ccc(F)cc1` [talazoparib], in the series with advanced malignancies, the “Grade 3/4 neutropenia” value is 28% and the “Grade 3/4 thrombocytopenia” value is 33%.
